Measured values published in ChEMBL document CHEMBL4507276 (2021).

Legend:
Conditions in all cases: Compound concentration 1000.0 nM
[1] = tested on: Receptor-type tyrosine-protein kinase FLT3 (Homo sapiens), P36888 [N841I]
[2] = biological target: Citron Rho-interacting kinase (Homo sapiens) (UniProt O14578)
[3] = biological target: T1, Mitogen-activated protein kinase kinase kinase 2 (Homo sapiens) (UniProt Q9Y2U5)
T1 sequence (whole entry): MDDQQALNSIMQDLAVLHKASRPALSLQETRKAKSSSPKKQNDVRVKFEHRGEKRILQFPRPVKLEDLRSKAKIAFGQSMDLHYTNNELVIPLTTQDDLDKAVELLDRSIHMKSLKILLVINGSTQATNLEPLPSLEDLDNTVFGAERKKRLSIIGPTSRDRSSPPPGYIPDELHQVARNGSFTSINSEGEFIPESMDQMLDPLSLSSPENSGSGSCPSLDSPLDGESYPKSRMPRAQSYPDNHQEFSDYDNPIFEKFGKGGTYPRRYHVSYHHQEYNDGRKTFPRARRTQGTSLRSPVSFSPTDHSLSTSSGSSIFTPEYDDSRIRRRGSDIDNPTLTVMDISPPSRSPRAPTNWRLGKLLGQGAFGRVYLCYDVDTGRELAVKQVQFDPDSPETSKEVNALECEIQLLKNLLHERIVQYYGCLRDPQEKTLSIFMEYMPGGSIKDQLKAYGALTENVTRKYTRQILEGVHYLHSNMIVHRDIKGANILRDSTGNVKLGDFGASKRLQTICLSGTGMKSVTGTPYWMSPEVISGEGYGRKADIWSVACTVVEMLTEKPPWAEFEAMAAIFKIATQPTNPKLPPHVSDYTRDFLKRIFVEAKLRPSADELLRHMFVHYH

[4] = biological target: Ribosomal protein S6 kinase alpha-3 (Homo sapiens) (UniProt P51812)
[5] = biological target: Calcium/calmodulin-dependent protein kinase type II subunit delta (Homo sapiens) (UniProt Q13557)
[6] = biological target: LIM domain kinase 1 (Homo sapiens) (UniProt P53667)
[7] = biological target: T2, Aurora kinase A (Homo sapiens) (UniProt O14965)
T2 sequence (whole entry): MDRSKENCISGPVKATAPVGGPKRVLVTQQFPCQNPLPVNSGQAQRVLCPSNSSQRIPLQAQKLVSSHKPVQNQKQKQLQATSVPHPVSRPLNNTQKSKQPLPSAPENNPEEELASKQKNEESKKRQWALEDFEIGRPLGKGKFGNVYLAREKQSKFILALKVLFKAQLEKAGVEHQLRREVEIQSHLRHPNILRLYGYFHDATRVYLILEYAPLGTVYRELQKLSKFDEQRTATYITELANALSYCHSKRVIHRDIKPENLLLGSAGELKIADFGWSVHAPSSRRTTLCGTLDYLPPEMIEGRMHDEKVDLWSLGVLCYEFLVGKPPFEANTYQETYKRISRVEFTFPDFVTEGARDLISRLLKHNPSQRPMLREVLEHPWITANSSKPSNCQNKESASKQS

[8] = biological target: Ephrin type-A receptor 6 (Homo sapiens) (UniProt Q9UF33)
[9] = biological target: Serine/threonine-protein kinase tousled-like 2 (Homo sapiens) (UniProt Q86UE8)
[10] = biological target: T3, Protein kinase C iota type (Homo sapiens) (UniProt P41743)
T3 sequence (whole entry): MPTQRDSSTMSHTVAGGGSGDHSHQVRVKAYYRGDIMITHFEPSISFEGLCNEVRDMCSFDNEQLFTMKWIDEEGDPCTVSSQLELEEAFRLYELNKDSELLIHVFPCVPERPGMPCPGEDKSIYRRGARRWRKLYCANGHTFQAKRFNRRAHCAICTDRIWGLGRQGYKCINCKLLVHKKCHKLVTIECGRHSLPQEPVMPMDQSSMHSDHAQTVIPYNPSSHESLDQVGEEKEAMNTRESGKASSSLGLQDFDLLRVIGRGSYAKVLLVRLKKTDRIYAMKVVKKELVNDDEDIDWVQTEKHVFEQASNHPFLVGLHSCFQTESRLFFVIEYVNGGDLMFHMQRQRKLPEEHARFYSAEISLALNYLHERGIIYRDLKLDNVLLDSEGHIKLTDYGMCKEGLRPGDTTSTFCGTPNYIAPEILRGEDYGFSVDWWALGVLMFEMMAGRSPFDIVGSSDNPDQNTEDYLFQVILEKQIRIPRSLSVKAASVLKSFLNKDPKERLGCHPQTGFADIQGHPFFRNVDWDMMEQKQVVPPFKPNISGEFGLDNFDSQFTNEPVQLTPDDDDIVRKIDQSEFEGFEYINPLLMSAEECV

[11] = biological target: T4, Activin receptor type-1 (Homo sapiens) (UniProt Q04771)
T4 sequence (whole entry): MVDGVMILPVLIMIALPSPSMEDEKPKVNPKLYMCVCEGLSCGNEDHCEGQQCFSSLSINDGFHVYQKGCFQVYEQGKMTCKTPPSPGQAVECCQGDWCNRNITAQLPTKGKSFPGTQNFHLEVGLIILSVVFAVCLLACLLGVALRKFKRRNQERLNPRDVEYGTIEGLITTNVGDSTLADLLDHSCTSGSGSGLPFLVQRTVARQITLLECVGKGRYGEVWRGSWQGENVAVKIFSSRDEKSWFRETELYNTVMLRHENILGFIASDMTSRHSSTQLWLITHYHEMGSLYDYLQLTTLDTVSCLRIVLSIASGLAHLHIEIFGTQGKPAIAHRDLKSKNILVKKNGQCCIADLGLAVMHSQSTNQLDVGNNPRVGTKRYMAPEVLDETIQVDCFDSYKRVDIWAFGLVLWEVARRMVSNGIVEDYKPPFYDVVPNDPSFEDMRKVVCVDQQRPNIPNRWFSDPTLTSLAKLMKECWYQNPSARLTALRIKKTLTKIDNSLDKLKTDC

[12] = biological target: Mitogen-activated protein kinase 11 (Homo sapiens) (UniProt Q15759)
[13] = biological target: Casein kinase I isoform gamma-1 (Homo sapiens) (UniProt Q9HCP0)
[14] = biological target: Serine/threonine-protein kinase/endoribonuclease IRE1 (Homo sapiens) (UniProt O75460)

Measured: residual activity

Serine/threonine-protein kinase tousled-like 2 (Homo sapiens), sequence (Q86UE8 whole entry, looked up): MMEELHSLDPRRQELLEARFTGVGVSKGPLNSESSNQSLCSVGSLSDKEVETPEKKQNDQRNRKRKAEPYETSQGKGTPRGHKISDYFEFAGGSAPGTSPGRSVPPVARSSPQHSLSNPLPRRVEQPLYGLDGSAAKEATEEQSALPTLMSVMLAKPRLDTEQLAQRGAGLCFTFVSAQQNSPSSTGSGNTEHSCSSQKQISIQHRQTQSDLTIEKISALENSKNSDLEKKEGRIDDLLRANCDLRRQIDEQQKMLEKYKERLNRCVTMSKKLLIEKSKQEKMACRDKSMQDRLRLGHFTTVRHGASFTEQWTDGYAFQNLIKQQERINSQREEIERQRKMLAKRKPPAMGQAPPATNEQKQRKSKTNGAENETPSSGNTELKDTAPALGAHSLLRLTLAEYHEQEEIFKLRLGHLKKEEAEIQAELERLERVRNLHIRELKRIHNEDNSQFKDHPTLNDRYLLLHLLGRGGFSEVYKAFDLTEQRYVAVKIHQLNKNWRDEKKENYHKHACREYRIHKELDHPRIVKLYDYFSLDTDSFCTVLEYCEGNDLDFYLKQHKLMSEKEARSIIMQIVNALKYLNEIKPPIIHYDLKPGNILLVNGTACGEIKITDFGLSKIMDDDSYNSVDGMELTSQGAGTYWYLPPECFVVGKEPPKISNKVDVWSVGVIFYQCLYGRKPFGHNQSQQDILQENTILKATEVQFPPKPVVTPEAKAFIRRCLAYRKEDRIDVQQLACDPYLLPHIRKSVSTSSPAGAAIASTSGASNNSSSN
Ribosomal protein S6 kinase alpha-3 (Homo sapiens), sequence (P51812 whole entry): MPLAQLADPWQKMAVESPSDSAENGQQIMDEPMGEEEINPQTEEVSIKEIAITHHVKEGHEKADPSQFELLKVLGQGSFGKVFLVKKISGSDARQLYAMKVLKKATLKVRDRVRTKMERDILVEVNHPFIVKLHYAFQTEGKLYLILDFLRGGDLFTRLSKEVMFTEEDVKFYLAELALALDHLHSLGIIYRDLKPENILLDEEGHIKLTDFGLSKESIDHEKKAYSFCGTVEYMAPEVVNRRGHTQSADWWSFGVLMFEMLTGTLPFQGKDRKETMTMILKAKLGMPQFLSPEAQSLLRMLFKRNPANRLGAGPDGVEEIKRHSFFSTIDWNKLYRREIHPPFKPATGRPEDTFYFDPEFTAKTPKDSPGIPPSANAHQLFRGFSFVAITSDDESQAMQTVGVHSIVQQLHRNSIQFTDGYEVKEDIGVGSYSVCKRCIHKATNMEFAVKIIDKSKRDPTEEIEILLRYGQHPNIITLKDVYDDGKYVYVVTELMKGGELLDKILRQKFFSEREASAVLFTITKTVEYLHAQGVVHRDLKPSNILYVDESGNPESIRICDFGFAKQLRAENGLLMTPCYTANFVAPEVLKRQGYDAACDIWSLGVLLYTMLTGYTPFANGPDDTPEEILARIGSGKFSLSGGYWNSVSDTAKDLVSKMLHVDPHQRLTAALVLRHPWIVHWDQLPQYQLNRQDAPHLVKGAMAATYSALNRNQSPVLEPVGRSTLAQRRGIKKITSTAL
Serine/threonine-protein kinase/endoribonuclease IRE1 (Homo sapiens), sequence (O75460 19-977 limits assumed): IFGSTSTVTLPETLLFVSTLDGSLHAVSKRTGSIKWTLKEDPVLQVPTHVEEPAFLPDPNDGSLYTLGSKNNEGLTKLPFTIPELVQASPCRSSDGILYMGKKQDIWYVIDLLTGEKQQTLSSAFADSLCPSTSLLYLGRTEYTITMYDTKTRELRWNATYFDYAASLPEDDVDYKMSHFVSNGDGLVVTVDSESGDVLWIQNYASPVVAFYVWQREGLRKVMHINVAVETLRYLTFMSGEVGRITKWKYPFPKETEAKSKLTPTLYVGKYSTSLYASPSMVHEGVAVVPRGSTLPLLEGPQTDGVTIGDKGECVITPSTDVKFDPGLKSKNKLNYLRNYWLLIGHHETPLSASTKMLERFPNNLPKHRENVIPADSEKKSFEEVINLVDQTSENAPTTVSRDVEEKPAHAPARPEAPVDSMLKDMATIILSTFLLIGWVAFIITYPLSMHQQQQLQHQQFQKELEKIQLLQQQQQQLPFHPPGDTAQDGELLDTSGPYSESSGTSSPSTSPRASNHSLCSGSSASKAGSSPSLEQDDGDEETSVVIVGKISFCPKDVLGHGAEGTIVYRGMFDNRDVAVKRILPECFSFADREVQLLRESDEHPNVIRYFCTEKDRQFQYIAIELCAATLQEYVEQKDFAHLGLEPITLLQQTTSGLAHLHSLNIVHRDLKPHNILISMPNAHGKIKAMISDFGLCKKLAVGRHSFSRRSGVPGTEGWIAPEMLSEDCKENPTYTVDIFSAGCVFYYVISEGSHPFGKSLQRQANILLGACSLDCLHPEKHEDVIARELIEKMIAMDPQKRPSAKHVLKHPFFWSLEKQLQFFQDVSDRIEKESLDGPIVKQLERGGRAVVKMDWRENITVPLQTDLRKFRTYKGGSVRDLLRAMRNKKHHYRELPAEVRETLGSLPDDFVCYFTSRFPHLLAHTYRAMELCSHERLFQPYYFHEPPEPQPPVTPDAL
Ephrin type-A receptor 6 (Homo sapiens), sequence (Q9UF33 whole entry): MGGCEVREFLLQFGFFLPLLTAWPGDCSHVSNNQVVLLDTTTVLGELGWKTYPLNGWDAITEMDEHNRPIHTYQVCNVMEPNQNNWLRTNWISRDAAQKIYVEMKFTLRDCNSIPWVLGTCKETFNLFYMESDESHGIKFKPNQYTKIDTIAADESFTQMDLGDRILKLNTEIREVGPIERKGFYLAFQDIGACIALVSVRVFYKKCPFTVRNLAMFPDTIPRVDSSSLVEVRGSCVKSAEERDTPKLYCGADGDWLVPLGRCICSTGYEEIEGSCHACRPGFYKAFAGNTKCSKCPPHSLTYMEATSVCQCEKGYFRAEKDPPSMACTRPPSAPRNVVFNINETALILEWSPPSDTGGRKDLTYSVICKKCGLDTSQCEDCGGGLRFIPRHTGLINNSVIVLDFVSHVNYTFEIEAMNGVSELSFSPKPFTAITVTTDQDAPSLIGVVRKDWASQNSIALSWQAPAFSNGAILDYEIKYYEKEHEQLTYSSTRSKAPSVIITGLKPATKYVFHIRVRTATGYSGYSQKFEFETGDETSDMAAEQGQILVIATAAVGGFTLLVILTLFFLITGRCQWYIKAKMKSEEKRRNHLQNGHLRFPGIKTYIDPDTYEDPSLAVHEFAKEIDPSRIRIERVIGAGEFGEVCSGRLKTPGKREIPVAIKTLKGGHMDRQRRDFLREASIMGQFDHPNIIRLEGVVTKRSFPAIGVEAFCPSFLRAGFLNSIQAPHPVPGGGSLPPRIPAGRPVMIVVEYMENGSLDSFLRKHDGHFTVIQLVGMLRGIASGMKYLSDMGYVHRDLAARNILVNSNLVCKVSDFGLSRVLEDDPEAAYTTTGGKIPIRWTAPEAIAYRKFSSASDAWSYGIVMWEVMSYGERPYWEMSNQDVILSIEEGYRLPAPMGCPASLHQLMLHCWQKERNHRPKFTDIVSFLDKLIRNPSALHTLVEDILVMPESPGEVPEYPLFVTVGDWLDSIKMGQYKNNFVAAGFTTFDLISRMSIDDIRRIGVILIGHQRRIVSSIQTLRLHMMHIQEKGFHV
LIM domain kinase 1 (Homo sapiens), sequence (P53667 whole entry, looked up, the tested form may be a part): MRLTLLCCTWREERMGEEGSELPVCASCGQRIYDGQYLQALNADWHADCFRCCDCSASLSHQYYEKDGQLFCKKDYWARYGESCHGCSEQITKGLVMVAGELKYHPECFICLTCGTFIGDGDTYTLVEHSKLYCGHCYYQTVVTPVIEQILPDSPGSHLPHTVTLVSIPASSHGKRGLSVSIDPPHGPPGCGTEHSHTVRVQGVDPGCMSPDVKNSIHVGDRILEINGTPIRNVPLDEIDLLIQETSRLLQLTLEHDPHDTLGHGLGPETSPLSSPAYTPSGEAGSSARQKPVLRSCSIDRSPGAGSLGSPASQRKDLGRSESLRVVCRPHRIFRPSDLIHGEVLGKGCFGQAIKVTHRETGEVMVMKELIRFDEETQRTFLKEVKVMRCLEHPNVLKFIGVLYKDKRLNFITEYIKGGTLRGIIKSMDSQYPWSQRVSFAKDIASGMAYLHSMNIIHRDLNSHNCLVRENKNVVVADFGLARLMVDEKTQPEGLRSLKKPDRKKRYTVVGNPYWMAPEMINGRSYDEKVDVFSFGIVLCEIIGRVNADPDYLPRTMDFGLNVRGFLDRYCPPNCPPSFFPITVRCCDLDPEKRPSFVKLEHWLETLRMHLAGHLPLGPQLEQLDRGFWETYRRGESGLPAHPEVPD
Mitogen-activated protein kinase 11 (Homo sapiens), sequence (Q15759 whole entry, canonical isoform): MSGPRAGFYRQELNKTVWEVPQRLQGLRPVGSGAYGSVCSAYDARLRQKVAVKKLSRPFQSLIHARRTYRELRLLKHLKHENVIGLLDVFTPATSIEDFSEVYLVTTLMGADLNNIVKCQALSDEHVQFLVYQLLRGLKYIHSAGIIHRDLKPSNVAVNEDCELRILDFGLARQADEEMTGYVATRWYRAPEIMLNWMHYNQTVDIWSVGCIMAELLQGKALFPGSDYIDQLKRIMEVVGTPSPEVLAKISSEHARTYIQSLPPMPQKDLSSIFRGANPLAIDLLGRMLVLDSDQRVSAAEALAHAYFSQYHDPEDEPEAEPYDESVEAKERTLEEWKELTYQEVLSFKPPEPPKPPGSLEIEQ
Calcium/calmodulin-dependent protein kinase type II subunit delta (Homo sapiens), sequence (Q13557 whole entry, the tested form may be a part): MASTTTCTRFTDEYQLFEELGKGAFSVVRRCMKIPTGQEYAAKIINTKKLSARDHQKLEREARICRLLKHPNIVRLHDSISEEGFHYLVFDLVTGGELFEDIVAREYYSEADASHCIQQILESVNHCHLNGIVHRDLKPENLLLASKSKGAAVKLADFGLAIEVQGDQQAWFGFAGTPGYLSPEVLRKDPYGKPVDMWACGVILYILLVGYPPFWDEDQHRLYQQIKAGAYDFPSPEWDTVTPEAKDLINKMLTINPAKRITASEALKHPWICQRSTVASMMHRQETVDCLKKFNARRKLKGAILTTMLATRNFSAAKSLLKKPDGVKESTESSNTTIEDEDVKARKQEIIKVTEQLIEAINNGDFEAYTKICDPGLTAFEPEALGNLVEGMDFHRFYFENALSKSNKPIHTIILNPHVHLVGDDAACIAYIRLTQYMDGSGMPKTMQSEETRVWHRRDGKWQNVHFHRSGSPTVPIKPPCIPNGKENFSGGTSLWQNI

CN(C)C(=O)Cn1cc(-c2nc(C3(c4ccc(-c5cnc(N)nc5)cc4)CC3)no2)cn1 [BI 0153]
inactive: [1] 100% | [2] 86% | [3] 93% | [4] 92% | [5] 99% | [6] 100% | [7] 82% | [8] 99% | [9] 100% | [10] 100% | [11] 95% | [12] 86% | [13] 90% | [14] 69%

CN(C)C(=O)Cn1cc(-c2nc([C@@](C)(c3ccc(-c4cnc(N)nc4)cc3)C3CC3)no2)cn1 [BI 665915]
inactive: [1] 83% | [2] 84% | [3] 94% | [4] 83% | [5] 100% | [6] 81% | [7] 73% | [8] 100% | [9] 100% | [10] 93% | [11] 84% | [12] 97% | [13] 100% | [14] 86%
